This is an account of results in ChEMBL document CHEMBL3639113, “TRPA1 antagonists” (2015).

This test addresses Transient receptor potential cation channel subfamily A member 1 (Homo sapiens, UniProt O75762). Nature of the test: FLIPR Calcium Assay: Ca2+ influx was measured using a FLIPR calcium assay kit (R8033; Molecular Devices, Sunnyvale, Calif.). The Ca2+ indicator dye was dissolved in Hanks' balanced salt solution supplemented with 20 mM HEPES buffer (HBSS/HEPES) according to the manufacturer instructions. Prior to start of the assay, the medium was removed by aspiration, and cells were loaded with 100 μL Ca2+ dye for 2 to 3 hours at room temperature. […] (4×) solutions of the test compounds were prepared in HBSS/HEPES, and 50 μL were added to the cells at a delivery rate of 10 μL/sec. Changes in fluorescence were measured over time in a fluorometric imaging plate reader (FLIPR, Molecular Devices). Two additions were made over the course of an experimental run. For agonist experiments, assay buffer was added at the 10 s time point, followed by addition of agonist at the 3 minute 10 sec time point.

Each structure is given as a SMILES string.

Sequence of Transient receptor potential cation channel subfamily A member 1 (O75762 whole entry): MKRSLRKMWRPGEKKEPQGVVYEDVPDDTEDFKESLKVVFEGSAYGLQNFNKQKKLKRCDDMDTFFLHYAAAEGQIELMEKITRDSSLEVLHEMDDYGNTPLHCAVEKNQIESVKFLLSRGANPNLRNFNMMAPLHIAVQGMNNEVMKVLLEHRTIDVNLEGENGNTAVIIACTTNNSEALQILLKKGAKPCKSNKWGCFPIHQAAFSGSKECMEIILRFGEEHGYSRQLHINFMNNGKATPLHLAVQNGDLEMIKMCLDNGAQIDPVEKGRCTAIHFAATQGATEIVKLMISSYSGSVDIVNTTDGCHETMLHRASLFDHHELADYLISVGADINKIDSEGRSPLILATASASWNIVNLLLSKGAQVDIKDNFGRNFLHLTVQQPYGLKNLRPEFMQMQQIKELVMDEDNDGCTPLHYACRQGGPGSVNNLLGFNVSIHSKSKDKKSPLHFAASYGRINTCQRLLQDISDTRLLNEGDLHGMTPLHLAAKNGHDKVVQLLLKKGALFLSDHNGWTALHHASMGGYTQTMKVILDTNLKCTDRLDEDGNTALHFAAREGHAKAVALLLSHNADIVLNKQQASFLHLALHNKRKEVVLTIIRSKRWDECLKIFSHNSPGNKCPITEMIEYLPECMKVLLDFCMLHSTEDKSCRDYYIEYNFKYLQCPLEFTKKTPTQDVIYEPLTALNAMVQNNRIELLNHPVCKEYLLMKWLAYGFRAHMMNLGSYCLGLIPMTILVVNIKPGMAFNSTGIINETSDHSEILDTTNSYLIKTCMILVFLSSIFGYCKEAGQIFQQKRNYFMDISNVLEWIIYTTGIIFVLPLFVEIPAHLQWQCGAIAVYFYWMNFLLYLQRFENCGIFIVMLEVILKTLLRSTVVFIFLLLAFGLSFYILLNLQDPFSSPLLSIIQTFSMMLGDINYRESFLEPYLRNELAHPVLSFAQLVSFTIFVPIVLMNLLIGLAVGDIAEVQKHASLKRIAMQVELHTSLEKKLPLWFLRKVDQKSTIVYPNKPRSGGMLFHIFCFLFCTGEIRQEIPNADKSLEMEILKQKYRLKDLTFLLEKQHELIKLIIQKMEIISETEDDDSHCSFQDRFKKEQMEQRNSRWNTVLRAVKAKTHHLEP

As usually defined, the IC50 is the concentration that gives 50% inhibition. `CCC(=N\O)/C(C)=C/c1ccc(F)c(C#N)c1`: the IC50 is more than 100 µM.
As for `CCC(=N\OC)/C(C)=C/c1ccc(F)cc1`, the 50% inhibitory concentration (IC50) was 8.3 µM.
